Tests used:
Assay in all cases: GRmax, 72 h; higher = less effect;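 note: breast cell lines in 384-well plates, nine doses across a 10^4 range, Dye Drop imaging of viable cells vs DMSO and time-zero plates, GR 0 means no net growth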
HCC1395 = system: HCC1395
HCC1954 = system: HCC1954
HCC70 = system: HCC70
HS578T = system: HS578T
MCF7 = system: MCF7
MDAMB453 = system: MDAMB453
SKBR3 = system: SKBR3
SUM149 = system: SUM149
SUM185PE = system: SUM185PE
SUM44PE = system: SUM44PE
UACC893 = system: UACC893
ZR751 = system: ZR751

Structure (SMILES): CC(=O)Nc1cccc(-n2c(=O)n(C3CC3)c(=O)c3c(Nc4ccc(I)cc4F)n(C)c(=O)c(C)c32)c1 (max 1 µM)
- GRmax, 72 h (HCC1395): 0.45 GR
- GRmax, 72 h (HCC1954): 0.229 GR
- GRmax, 72 h (HCC70): -0.0393 GR
- GRmax, 72 h (HS578T): 0.193 GR
- GRmax, 72 h (MCF7): 0.558 GR
- GRmax, 72 h (MDAMB453): 0.0489 GR
- GRmax, 72 h (SKBR3): 0.683 GR
- GRmax, 72 h (SUM149): 0.237 GR
- GRmax, 72 h (SUM185PE): 0.904 GR
- GRmax, 72 h (SUM44PE): 0.56 GR
- GRmax, 72 h (UACC893): -0.0662 GR
- GRmax, 72 h (ZR751): 0.266 GR

Structure (SMILES): CC(=O)c1c(C)c2cnc(Nc3ccc(N4CCNCC4)cn3)nc2n(C2CCCC2)c1=O (max 3.162 µM)
- GRmax, 72 h (HCC1395): 0.348 GR
- GRmax, 72 h (HCC1954): 0.526 GR
- GRmax, 72 h (HCC70): 0.936 GR
- GRmax, 72 h (HS578T): 0.305 GR
- GRmax, 72 h (MCF7): 0.254 GR
- GRmax, 72 h (MDAMB453): 0.0416 GR
- GRmax, 72 h (SKBR3): 0.35 GR
- GRmax, 72 h (SUM149): 0.485 GR
- GRmax, 72 h (SUM185PE): 0.852 GR
- GRmax, 72 h (SUM44PE): 0.437 GR
- GRmax, 72 h (UACC893): 0.344 GR
- GRmax, 72 h (ZR751): 0.482 GR

Structure (SMILES): COc1cccc2c1C(=O)c1c(O)c3c(c(O)c1C2=O)C[C@@](O)(C(=O)CO)C[C@@H]3O[C@H]1C[C@H](N)[C@H](O)[C@H](C)O1 [Doxorubicin] (max 3.162 µM)
- GRmax, 72 h (HCC1395): -0.417 GR
- GRmax, 72 h (HCC1954): -0.338 GR
- GRmax, 72 h (HCC70): -0.779 GR
- GRmax, 72 h (HS578T): -0.347 GR
- GRmax, 72 h (MCF7): -0.286 GR
- GRmax, 72 h (MDAMB453): -0.348 GR
- GRmax, 72 h (SKBR3): -0.616 GR
- GRmax, 72 h (SUM149): -0.321 GR
- GRmax, 72 h (SUM185PE): 0.744 GR
- GRmax, 72 h (SUM44PE): -0.677 GR
- GRmax, 72 h (UACC893): -0.405 GR
- GRmax, 72 h (ZR751): -0.0018 GR

Structure (SMILES): COc1cc([C@@H]2c3cc4c(cc3[C@@H](O[C@@H]3O[C@@H]5CO[C@@H](C)O[C@H]5[C@H](O)[C@H]3O)[C@H]3COC(=O)[C@H]23)OCO4)cc(OC)c1O [Etoposide] (max 10 µM)
- GRmax, 72 h (HCC1395): -0.225 GR
- GRmax, 72 h (HCC1954): -0.265 GR
- GRmax, 72 h (HCC70): -0.152 GR
- GRmax, 72 h (HS578T): -0.136 GR
- GRmax, 72 h (MCF7): -0.0441 GR
- GRmax, 72 h (MDAMB453): -0.0601 GR
- GRmax, 72 h (SKBR3): -0.317 GR
- GRmax, 72 h (SUM149): -0.196 GR

Structure (SMILES): CCC(=O)Nc1ccc(C(=O)Nc2ccc(Nc3ncc4c(n3)N(C)c3ccc(C)cc3C(=O)N4C)cc2)cc1 [FMF-03-145-1]
- GRmax, 72 h (HCC1395): -0.151 GR
- GRmax, 72 h (HCC1954): -0.181 GR
- GRmax, 72 h (HCC70): -0.317 GR
- GRmax, 72 h (HS578T): -0.183 GR
- GRmax, 72 h (MCF7): 0.0265 GR
- GRmax, 72 h (MDAMB453): 0.0994 GR
- GRmax, 72 h (SKBR3): -0.0145 GR
- GRmax, 72 h (SUM149): -0.101 GR
- GRmax, 72 h (SUM185PE): 0.205 GR
- GRmax, 72 h (SUM44PE): -0.0614 GR
- GRmax, 72 h (UACC893): 0.127 GR
- GRmax, 72 h (ZR751): 0.153 GR

Structure (SMILES): C=CCn1c(=O)c2cnc(Nc3ccc(N4CCN(C)CC4)cc3)nc2n1-c1cccc(C(C)(C)O)n1 [AZD1775] (max 10 µM)
- GRmax, 72 h (HCC1395): -0.587 GR
- GRmax, 72 h (HCC1954): -0.416 GR
- GRmax, 72 h (HCC70): -0.75 GR
- GRmax, 72 h (HS578T): -0.394 GR
- GRmax, 72 h (MCF7): -0.0913 GR
- GRmax, 72 h (MDAMB453): -0.249 GR
- GRmax, 72 h (SKBR3): -0.561 GR
- GRmax, 72 h (SUM149): -0.497 GR
- GRmax, 72 h (SUM185PE): 0.213 GR
- GRmax, 72 h (SUM44PE): -0.813 GR
- GRmax, 72 h (UACC893): -0.42 GR
- GRmax, 72 h (ZR751): 0.247 GR

Structure (SMILES): CC(=O)O[C@H]1C(=O)[C@@]2(C)[C@H]([C@H](OC(=O)c3ccccc3)[C@]3(O)C[C@H](OC(=O)[C@H](O)[C@@H](NC(=O)c4ccccc4)c4ccccc4)C(C)=C1C3(C)C)[C@]1(OC(C)=O)CO[C@@H]1C[C@@H]2O [Paclitaxel] (max 1 µM)
- GRmax, 72 h (HCC1395): -0.458 GR
- GRmax, 72 h (HCC1954): -0.396 GR
- GRmax, 72 h (HCC70): -0.506 GR
- GRmax, 72 h (HS578T): -0.375 GR
- GRmax, 72 h (MCF7): -0.106 GR
- GRmax, 72 h (MDAMB453): 0.0356 GR
- GRmax, 72 h (SKBR3): -0.34 GR
- GRmax, 72 h (SUM149): -0.257 GR
- GRmax, 72 h (SUM185PE): 0.298 GR
- GRmax, 72 h (SUM44PE): -0.474 GR
- GRmax, 72 h (UACC893): -0.384 GR
- GRmax, 72 h (ZR751): -0.0835 GR

Structure (SMILES): CCCCOc1c(C(=O)c2c(F)cc(C)cc2F)c[nH]c2nncc1-2 (max 10 µM)
- GRmax, 72 h (HCC1395): -0.214 GR
- GRmax, 72 h (HCC1954): -0.0431 GR
- GRmax, 72 h (HCC70): -0.164 GR
- GRmax, 72 h (HS578T): -0.0288 GR
- GRmax, 72 h (MCF7): 0.072 GR
- GRmax, 72 h (MDAMB453): 0.31 GR
- GRmax, 72 h (SKBR3): -0.0172 GR
- GRmax, 72 h (SUM149): 0.0975 GR
- GRmax, 72 h (SUM185PE): 0.905 GR
- GRmax, 72 h (SUM44PE): -0.234 GR
- GRmax, 72 h (UACC893): 0.117 GR
- GRmax, 72 h (ZR751): 0.451 GR

— the supplement of paper PMC9663587
